{"source": "patent US20090036380A1", "about": "“Composition And Method For Brain Tumor Therapy” (Yeda Research and Development Co., Ltd., priority 2006, published 2009)", "key": {"Hek cells": {"tested_on": "Hek cells", "experiment": "Viability (XTT) and morphology of Hek cells co-transfected with Karet and receptors", "type": "cell-based, human", "conditions": "24 hours after transfection; for cell morphology: microscope", "description": "FIGS. 21a-q are photomicrographs of Hek cells 24 hours after transfection with karet, Trk receptors, EGFR and/or P75 constructs. […] FIG. 21a—cells transfected with TrkA and pcDNA3; FIG. 21b—TrkA and Karet; FIG. 21c—TrkA and Karet F217V; FIG. 21d—Karet and pcDNA4; FIG. 21e—Karet F217V and pcDNA4; FIG. 21f—TrIcA and pcDNA3; FIG. 21g—TrkB and pcDNA3; FIG. 21h—TrkC and pcDNA3; FIG. 21i—TrkA and Karet;\nFIG. 21j—TrkB and Karet; FIG. 21k—TrkC and Karet; FIG. 21l—Karet and pcDNA3; FIG. 21m—TrkC (low concentration) and pcDNA3; FIG. 21n—EGFR-Flag and pcDNA3; FIG. 21o—p75 and pcDNA3; FIG. 21p—EGFR-Flag and Ha-Karet; FIG. 21q—p75 and Ha-Karet.\nFIGS. 22a-b are histograms depicting the effect of co-transfection of Karet and TrkA on cell death in Hek (FIG. 22a) or NNR5 (FIG. 22b) cells. FIG. 22a—Hek cells were co-transfected with Karet or control vector and TrkA, TrkB and TrkC. Viability of the cells was measured 24 hours after transfection by XTT. *p<0.05; FIG. 22b—NNR5 cells were co-transfected with Karet or control vector and TrkA, TrkB and TrkC. Cells were analyzed by FACS 24 hours after transfection using the dead/live kit. ** p<0.001.\nFIG. 23 is a histogram depicting the effect of co-transfection of EGFR and Karet on cell death in Hek cells. Hek cells were co-transfected with Karet or control vector and p75, EGFR and PTB. Viability of the cells was measured 24 hours after transfection by XTT. ** p<0.001.\nCell proliferation was evaluated using the Cell proliferation assay with XTT reagent (Cat. No. 20-300-1000), Biological Industries, Beth Haemek, Israel, according to manufacturer's instructions.\nTo test whether Karet is capable of inducing cell death in other cells such as human HEK or NNR5 cells, the cells were transfected with various receptors and Karet constructs and the effect on cell death was determined by microscopic observation of cell morphology and using cell viability assays, as follows."}, "TrkA": {"tested_on": "TrkA", "experiment": "Co-immunoprecipitation of HA-Karet constructs with TrkA", "type": "binding", "conditions": "co-transfected Hek or NNR5 cells, anti-HA IP", "description": "FIG. 3c is a co-immunoprecipitation assay depicting co-immunoprecipitation of HA-Karet with TrkA in COS cells. Karet tagged with the HA epitope was immunoprecipitated with anti-HA antibody and the blot was incubated with anti-TrkA (RTA). In control experiments the HA-Karet was substituted with vector.\nFIG. 3d is a co-immunoprecipitation assay depicting interaction of Karet and TrkA in NNR5 cells transfected with TrkA.\nFIG. 3e is a co-immunoprecipitation assay depicting co-immunoprecipitation of HA-Karet with TricA in co-transfected NNR5 cells immunoprecipitated with anti-HA (Roche) and Western blot with the anti-TrkA antibody C14 (Santa Cruz).\nFIGS. 4a-c are co-immunoprecipitation assay results depicting the influence of NGF treatment on TrkA-Karet interaction. FIG. 4a depicts that TrkA-Karet interaction occurred prior to NGF treatment and was enhanced after ligand stimulation for 10 minutes (10 m) or 2 hours (2 h). HA-Karet was electroporated into cell line PC12, and the cells were treated with 50 ng/ml NGF for the indicated time periods in order to activate p75 and TrkA. Karet tagged with the HA epitope was immunoprecipitated with anti-HA antibody, the precipitated proteins were separated electrophoretically, and gel blots were incubated with anti-TrkA antibody (RTA). FIG. 4b depicts that necdin seems to compete with TrkA for binding to Karet. myc-Karet was electroporated into necdin stable cell line, and the cells were treated with 50 ng/ml NGF for the indicated time periods. Karet tagged with the myc epitope was immunoprecipitated with anti-myc antibody, the precipitated proteins were separated electrophoretically, and gel blots were incubated with anti-TrkA antibody (RTA). […] A blot from the same experiment was stripped and re-incubated with anti-necdin antibody. The arrow indicates the glycosylated form of TrkA (molecular weight of 140 kDa).\nFIG. 7b is an immunoprecipitation assay depicting that the PTB domain-containing Karet(1-228) mutant, but not Karet(228-453) co-immunoprecipitates with TrkA in NNR5 cells. Truncation mutants tagged with the HA epitope were immunoprecipitated with anti-HA antibody, the precipitated proteins were separated electrophoretically, and gel blots were incubated with anti-TrkA (RTA).\nFIGS. 24a-d depict co IP of Ha Karet with TrkA, TrkB, TrkC, p75 from co-transfected Hek cells. Cells were co-transfected with Ha Karet or control vector and TrkA, TrkB, TrkC or p75. Cells were lysed with NP40, the HA-beads (beads conjugated to anti-HA antibody) were blocked with Hek lysate, and elution was done for 30 minutes at 37° C. […]"}, "[1]": {"conditions": "Hek cells co-transfected with TrkA"}}}
{"substance": "Karet F217V: full-length mouse Karet with phenyl alanine at position 217 point mutated to valine", "values": [{"measurement": "cell morphology", "setting": "Hek cells; [1]", "result": "transfection-induced cell death"}, {"measurement": "co-immunoprecipitation / interaction with TrkA", "setting": "TrkA", "result": "co-immunoprecipitated"}]}
{"substance": "Karet: full-length mouse Karet protein (SEQ ID NO:1), PTB domain protein, expressed from pcDNA3 with HA tag", "values": [{"measurement": "decrease in living cells", "setting": "Hek cells; HEK cells co-transfected with Karet and TrkA, XTT", "result": 50, "unit": "%"}, {"measurement": "decrease in cell viability", "setting": "Hek cells; Hek cells co-transfected with EGFR and Karet, XTT", "result": 40, "unit": "%"}, {"measurement": "cell morphology", "setting": "Hek cells; Hek cells co-transfected with EGFR", "result": "morphology change which is consistent with cell death"}, {"measurement": "cell morphology", "setting": "Hek cells; [1]", "result": "morphology change which is consistent with cell death"}, {"measurement": "co-immunoprecipitation / interaction with TrkA", "setting": "TrkA", "result": "co-immunoprecipitated"}]}
